Experimental data published in US20140314857A1, “FORMULATIONS FOR ENHANCED BIOAVAILABILITY OF ZANAMIVIR” (priority 2012, published 2014).
Several values for one entry are separate records, joined by “and”; a condition that tells them apart may be missing. Identical values can stand only once.

Assay: Intravenous and intraduodenal (bolus) bioavailability of zanamivir from Capmul MCM L8 25, 50, 75 µL (Example 7)
Conditions: for Co: extrapolated to t = 0
Source text: Male Sprague-Dawley rats (Hilltop Labs), 3 animals per treatment group, 250-350 grams in weight, were fitted with a jugular vein cannula (JVC). Animals intended for intraduodenal dosing were also fitted with one or more intraduodenal cannula (IDC) and those intended for intravenous dosing were fitted with a second JVC. Food was withheld from the animals for a minimum of twelve hours prior to test article administration and was returned approximately four hours post-dose. Water was supplied ad libitum.
Intraduodenal doses composed of 1.5 mg of zanamivir and varying amounts of an enhancer (glycerol or Capmul MCM L8) were injected directly into the duodenum via the IDC. Intravenous dosing was conducted by the injection of 1.5 mg of zanamivir in 200 μL of PBS through a JVC. For some experiments, the absorption enhancer was administered intraduodenally 2 hr prior to administering 1.5 mg of zanamivir in PBS through a second IDC. Each intraduodenal dose was followed with the introduction of a small air bubble (˜10 μL) in the cannula followed by a flush of 125 μL of PBS to ensure the dose was given in full. The volume of PBS used for cannula flush was consistent across the treatment groups. The cannula was tied to prevent the PBS remaining in the cannula from entering the duodenum.
Blood samples collected via the JVC, approximately 400 μL each, were obtained at 2 min, 5 min, 15 min, 30 min, 60 min, 90 min, and 120 min, with sodium heparin used as an anti-coagulant. Each sample was placed into a chilled tube containing the anticoagulant and kept on ice until centrifugation at 4° C., 3,000×g, for 5 min. The plasma supernatants were stored at −70° C. until LC-MS analysis.
Dosing solution samples were assayed by LC-MS/MS using electrospray ionization. The chromatographic system consisted of Perkin Elmer series 200 micropumps and autosampler equipped with a Waters Atlantic® HILIC Silica 3 μM, 2.1×50 mm column. The mass spectrometer was a PE Sciex API 4000 with electrospray interface in multiple reaction monitoring mode. […] Stock solutions (1 mg/mL zanamivir) were prepared in water. Standards (eight concentrations) were prepared in the appropriate matched matrix (HBSSg or Sprague-Dawley rat plasma containing sodium heparin) and diluted 50-fold with methanol. Experimental samples were treated identically.
Standards and samples were prepared in Sprague Dawley rat plasma containing sodium heparin as an anticoagulant. An eight-point calibration curve was prepared at concentrations of 1000, 750, 500, 250, 100, 50, 25, and 10 ng/mL by serial dilution. Standard samples were treated identically to the study samples.
Plasma samples were extracted by protein precipitation in methanol.
In this example, the bioavailability of Zanamivir was evaluated after intraduodenal doses in male Sprague-Dawley rats. The test compound was dosed at 1.5 mg/animal through intravenous and intraduodenal routes from normal saline and Capmul MCM L8 formulations, respectively. Plasma levels were determined by LC-MS/MS analysis. Pharmacokinetic parameters were estimated by a non-compartmental model using WinNonlin v5.2.1 software.
Each ID dose in groups 2-4 will be followed with a small air bubble ([…]) and a flush of […] of PBS to insure the dose is given in full. The volume of PBS used for cannulae flush will be maintained consistent across the animals and the treatment groups. The cannula will then be tied to help prevent the PBS remaining in the cannula from entering the duodenum.

[1] = IV 1.5 mg/animal, Normal Saline, Ex.7, individual rats

## CC(=O)NC1C(NC(=N)N)C=C(C(=O)O)OC1C(O)C(O)CO (stereo not drawn) [Zanamivir, 5-acetamido-4-guanidino-6-(1,2,3-trihydroxypropyl)-5,6-dihydro-4H-pyran-2-carboxylic acid]
ID bolus 1.5 mg/animal, 25 µL Capmul MCM L8, 0.25 hr, individual rats
  Plasma concentration: 1500 ng/mL and 1380 ng/mL and 655 ng/mL
ID bolus 1.5 mg/animal, 25 µL Capmul MCM L8, 0.5 hr, individual rats
  Plasma concentration: 950 ng/mL and 647 ng/mL
ID bolus 1.5 mg/animal, 25 µL Capmul MCM L8, 0.83 hr, individual rats
  Plasma concentration: 1960 ng/mL and 2090 ng/mL and 913 ng/mL
ID bolus 1.5 mg/animal, 25 µL Capmul MCM L8, 1.0 hr, individual rats
  Plasma concentration: 378 ng/mL and 259 ng/mL
ID bolus 1.5 mg/animal, 25 µL Capmul MCM L8, 1.5 hr, individual rats
  Plasma concentration: 143 ng/mL and 119 ng/mL
ID bolus 1.5 mg/animal, 25 µL Capmul MCM L8, 2.0 hr, individual rats
  Plasma concentration: 78.2 ng/mL and 66.8 ng/mL
ID bolus 1.5 mg/animal, 25 µL Capmul MCM L8, individual rats
  t1/2: 26.4 min and 30.7 min
ID bolus 1.5 mg/animal, 50 µL Capmul MCM L8, Ex.7, 0.25 hr, individual rats
  Plasma concentration: 1400 ng/mL and 1270 ng/mL
ID bolus 1.5 mg/animal, 50 µL Capmul MCM L8, Ex.7, 0.5 hr, individual rats
  Plasma concentration: 985 ng/mL and 774 ng/mL
ID bolus 1.5 mg/animal, 50 µL Capmul MCM L8, Ex.7, 0.83 hr, individual rats
  Plasma concentration: 2130 ng/mL and 1600 ng/mL
ID bolus 1.5 mg/animal, 50 µL Capmul MCM L8, Ex.7, 1.0 hr, individual rats
  Plasma concentration: 708 ng/mL and 551 ng/mL
ID bolus 1.5 mg/animal, 50 µL Capmul MCM L8, Ex.7, 1.5 hr, individual rats
  Plasma concentration: 299 ng/mL and 217 ng/mL
ID bolus 1.5 mg/animal, 50 µL Capmul MCM L8, Ex.7, 2.0 hr, individual rats
  Plasma concentration: 158 ng/mL and 99.5 ng/mL
ID bolus 1.5 mg/animal, 50 µL Capmul MCM L8, Ex.7, individual rats
  t1/2: 27.7 min and 24.3 min
IV 1.5 mg/animal, Normal Saline, Ex.7, 0.033 hr, individual rats
  Plasma concentration: 22900 ng/mL and 20400 ng/mL
IV 1.5 mg/animal, Normal Saline, Ex.7, 0.083 hr, individual rats
  Plasma concentration: 12300 ng/mL and 13500 ng/mL
IV 1.5 mg/animal, Normal Saline, Ex.7, 0.25 hr, individual rats
  Plasma concentration: 9620 ng/mL and 11600 ng/mL
IV 1.5 mg/animal, Normal Saline, Ex.7, 0.5 hr, individual rats
  Plasma concentration: 5500 ng/mL and 6450 ng/mL
IV 1.5 mg/animal, Normal Saline, Ex.7, 1.0 hr, individual rats
  Plasma concentration: 1520 ng/mL and 2190 ng/mL
IV 1.5 mg/animal, Normal Saline, Ex.7, 1.5 hr, individual rats
  Plasma concentration: 661 ng/mL and 862 ng/mL
IV 1.5 mg/animal, Normal Saline, Ex.7, 2.0 hr, individual rats
  Plasma concentration: 220 ng/mL and 432 ng/mL
[1]
  Co: 32061 ng/mL and 34657 ng/mL and 26863 ng/mL
  CL: 10.7 mL/min/kg and 9.52 mL/min/kg
  T1/2: 21.5 min and 25.6 min
  Vss: 0.260 L/kg and 0.278 L/kg
IV 1.5 mg/animal, Normal Saline, Ex.7, mean
  Co: 31194 ± 3968 ng/mL and 31194 ng/mL
male, Sprague-Dawley, rat, in vivo, 1.5 mg, average half-life, ID bolus 1.5 mg/animal, 75 µL Capmul MCM L8
  half-life: 24.9 ± 3.78 min
male, Sprague-Dawley, rat, in vivo, 1.5 mg, overall percent bioavailability
  bioavailability: 25%
male, Sprague-Dawley, rat, in vivo, 1.5 mg, t1/2, ID bolus 1.5 mg/animal, 25 µL Capmul MCM L8, individual rats
  half-life: 24.5 min
male, Sprague-Dawley, rat, in vivo, 1.5 mg, t1/2, ID bolus 1.5 mg/animal, 25 µL Capmul MCM L8, mean
  half-life: 27.2 ± 3.18 min
male, Sprague-Dawley, rat, in vivo, 1.5 mg, t1/2, ID bolus 1.5 mg/animal, 50 µL Capmul MCM L8, Ex.7, individual rats
  half-life: 21.8 min
male, Sprague-Dawley, rat, in vivo, 1.5 mg, t1/2, ID bolus 1.5 mg/animal, 50 µL Capmul MCM L8, Ex.7, mean
  half-life: 24.6 min
male, Sprague-Dawley, rat, in vivo, 1.5 mg, t1/2, intraduodenal bolus, 1.5 mg/animal, 75 μL Capmul MCM L8, mean of 3 rats
  half-life: 24.9 min
male, Sprague-Dawley, rat, in vivo, 1.5 mg, t1/2, intraduodenal bolus, 1.5 mg/animal, 75 μL Capmul MCM L8, rat 963
  half-life: 29.2 min
male, Sprague-Dawley, rat, in vivo, 1.5 mg, t1/2, intraduodenal bolus, 1.5 mg/animal, 75 μL Capmul MCM L8, rat 964
  half-life: 21.9 min
male, Sprague-Dawley, rat, in vivo, 1.5 mg, t1/2, intraduodenal bolus, 1.5 mg/animal, 75 μL Capmul MCM L8, rat 965
  half-life: 23.6 min
male, Sprague-Dawley, rat, in vivo, 1.5 mg, t1/2, summary, intraduodenal, 1.5 mg/animal, 25 μL Capmul MCM L8
  half-life: 27.2 min
male, Sprague-Dawley, rat, in vivo, 1.5 mg, t1/2, summary, intraduodenal, 1.5 mg/animal, 50 μL Capmul MCM L8
  half-life: 24.6 min
male, Sprague-Dawley, rat, in vivo, 1.5 mg, t1/2, summary, intraduodenal, 1.5 mg/animal, 75 μL Capmul MCM L8
  half-life: 24.9 min
male, Sprague-Dawley, rat, in vivo, 1.5 mg, tmax, intraduodenal bolus, 1.5 mg/animal, 75 μL Capmul MCM L8, rat 964
  Tmax: 15 min
male, Sprague-Dawley, rat, in vivo, 1.5 mg/animal, Plasma concentration, ID bolus 1.5 mg/animal, 25 µL Capmul MCM L8, 0.25 hr, mean
  concentration at 0.25 hr: 1180 ng/mL
male, Sprague-Dawley, rat, in vivo, 1.5 mg/animal, Plasma concentration, ID bolus 1.5 mg/animal, 25 µL Capmul MCM L8, 0.5 hr, individual rats
  concentration at 0.5 hr: 916 ng/mL
male, Sprague-Dawley, rat, in vivo, 1.5 mg/animal, Plasma concentration, ID bolus 1.5 mg/animal, 25 µL Capmul MCM L8, 0.5 hr, mean
  concentration at 0.5 hr: 838 ng/mL
male, Sprague-Dawley, rat, in vivo, 1.5 mg/animal, Plasma concentration, ID bolus 1.5 mg/animal, 25 µL Capmul MCM L8, 0.83 hr, mean
  concentration at 0.83 hr: 1650 ng/mL
male, Sprague-Dawley, rat, in vivo, 1.5 mg/animal, Plasma concentration, ID bolus 1.5 mg/animal, 25 µL Capmul MCM L8, 1.0 hr, individual rats
  concentration at 1 hr: 387 ng/mL
male, Sprague-Dawley, rat, in vivo, 1.5 mg/animal, Plasma concentration, ID bolus 1.5 mg/animal, 25 µL Capmul MCM L8, 1.0 hr, mean
  concentration at 1 hr: 341 ng/mL
male, Sprague-Dawley, rat, in vivo, 1.5 mg/animal, Plasma concentration, ID bolus 1.5 mg/animal, 25 µL Capmul MCM L8, 1.5 hr, individual rats
  concentration at 1.5 hr: 145 ng/mL
male, Sprague-Dawley, rat, in vivo, 1.5 mg/animal, Plasma concentration, ID bolus 1.5 mg/animal, 25 µL Capmul MCM L8, 1.5 hr, mean
  concentration at 1.5 hr: 136 ng/mL
male, Sprague-Dawley, rat, in vivo, 1.5 mg/animal, Plasma concentration, ID bolus 1.5 mg/animal, 25 µL Capmul MCM L8, 2.0 hr, individual rats
  concentration at 2 hr: 70.7 ng/mL
male, Sprague-Dawley, rat, in vivo, 1.5 mg/animal, Plasma concentration, ID bolus 1.5 mg/animal, 25 µL Capmul MCM L8, 2.0 hr, mean
  concentration at 2 hr: 71.9 ng/mL
male, Sprague-Dawley, rat, in vivo, 1.5 mg/animal, Plasma concentration, ID bolus 1.5 mg/animal, 50 µL Capmul MCM L8, Ex.7, 0.25 hr, individual rats
  concentration at 0.25 hr: 2060 ng/mL
male, Sprague-Dawley, rat, in vivo, 1.5 mg/animal, Plasma concentration, ID bolus 1.5 mg/animal, 50 µL Capmul MCM L8, Ex.7, 0.25 hr, mean
  concentration at 0.25 hr: 1580 ng/mL
male, Sprague-Dawley, rat, in vivo, 1.5 mg/animal, Plasma concentration, ID bolus 1.5 mg/animal, 50 µL Capmul MCM L8, Ex.7, 0.5 hr, individual rats
  concentration at 0.5 hr: 1250 ng/mL
male, Sprague-Dawley, rat, in vivo, 1.5 mg/animal, Plasma concentration, ID bolus 1.5 mg/animal, 50 µL Capmul MCM L8, Ex.7, 0.5 hr, mean
  concentration at 0.5 hr: 1000 ng/mL
